From patent US20120058974A1, “Composition comprising pesticide and benzotriazole UV absorbers” (BASF SE, priority 2009, published 2012)

What was measured:
[1] = Determination of the surface tension; format: physicochemical; settings: 25° C.; UV absorber concentrations from about 1 mg/l to 5,000 mg/l
Description: The surface tension (ST) of the UV absorbers 1C and 1F was determined at 25° C. at concentrations of the UV absorber of from about 1 mg/l to 5,000 mg/l (Table 4). The ST of water to air is, for comparison, 72.4 mN/m, the ST of commercial surfactants is about 30-35 mN/m. […] It was also shown that UV absorbers according to the invention are similar in surface activity to commercial surfactants.

[2] = UV-stabilizing effect: residual metaflumizone after exposure to light (Atlas Suntest), HPLC; format: physicochemical; settings: dried film; for Residual metaflumizone content (%) after 1 day: continuous light 1 day; for Residual metaflumizone content (%) after 1 week: continuous light seven days
Description: UV-Stabilizing Effect A formulation comprising 100 g/l of metaflumizone and 40 g/l of UV absorber was prepared as described in Example 2. The formulation was diluted with water such that an active content of 10 g/l (Table 3) or 1 g/l (Table 4) was obtained.
About 20 mg of the formulation thus prepared were placed on a microscope slide, allowed to dry for 30 minutes and then exposed to light for one or seven days continuously (Atlas Suntest CRT plus, “Outdoor” setting, irradiation corresponds to the same spectrum and intensity as normal sunlight at midday in summer). After the exposure time, the samples were dissolved in dimethyl sulfoxide. The residual level of metaflumizone was determined by means of quantitative HPLC (column: BEH C18 1.7 μm 2.1×100; elution with a gradient of acetonitrile/0.1% H3PO4 rising from 5/95:95/5). For comparison, each exposure series run included a sample without UV absorber (reference). Evaluation: 2 samples were treated as blank samples by immediately redissolving them after drying, without exposure to light, and determining the metaflumizone content. The resulting mean was set equal to 100% and the remaining samples were standardized against that.
A commercial formulation of metaflumizone (Alverde®) comprising 240 g/l of metaflumizone was diluted with water to an active content of 10 g/l. Various UV absorbers were added (Table 5) and analyzed as described under Example 4A.

[3] = Alverde® diluted to 10 g/l metaflumizone, UV absorber added
[4] = formulation 100 g/l metaflumizone + 40 g/l UV absorber diluted to 1 g/l metaflumizone
[5] = formulation 100 g/l metaflumizone + 40 g/l UV absorber diluted to 10 g/l metaflumizone

| Compound | ST (surface tension) [1] [mN/m] | Residual metaflumizone content (%) after 1 day [2, 3] [%] | Residual metaflumizone content (%) after 1 week [2, 3] [%] | Residual metaflumizone content (%) after 1 day [2, 4] [%] | Residual metaflumizone content (%) after 1 week [2, 4] [%] | Residual metaflumizone content (%) after 1 day [2, 5] [%] | Residual metaflumizone content (%) after 1 week [2, 5] [%] |
| --- | --- | --- | --- | --- | --- | --- | --- |
| 3-(3-benzotriazol-2-yl-5-tert-butyl-4-hydroxyphenyl)propionic acid [tridecanol-EO18]ester [Example 1F] | 34.7 |  |  |  |  |  |  |
| COCCOCCOCCOCCOCCOCCOCCOC(=O)CCc1cc(-n2nc3ccccc3n2)c(O)c(C(C)(C)C)c1 [Example 1C, 3-(3-benzotriazol-2-yl-5-tert-butyl-4-hydroxyphenyl)propionic acid [Pluriol A350E]ester] | 39.5 | 34 | 1 | 45 | 16 | 89 | 55 |
| COCCOCCOCCOCCOCCOCCOCCOC(=O)CCc1cc(-n2nc3ccc(Cl)cc3n2)c(O)c(C(C)(C)C)c1 [Example 1J, 2-(5-chloro-2H-benzotriazol-2-yl)-6-tert-butyl-4-hydroxyphenylpropionic acid [Pluriol A350E]ester] |  | 46 | 30 |  |  |  |  |
| p-Aminobenzoic acid ethoxylate (45) [Uvinul ® P25] | 56.9 |  |  |  |  |  |  |
